Patent publication US8133471B2, “CLK-peptide and SLK-peptide” (New York University, priority 2003, dated 2012)

Key:
Human melanoma cells M21 = assay: M21 melanoma cell adhesion to denatured collagen type-IV (Example 2); assay type: cell-based; details: M21 cells on denatured collagen type-IV; peptide 250 μg/ml
Excerpt: FIG. 1 is a chart which illustrates M21 human melanoma cell adhesion to untreated denatured type-IV collagen (NT), CLK-peptide treated denatured collagen type-IV, SLK-peptide treated denatured collagen type-IV, and SDR-peptide treated denatured collagen type-IV.
SLK peptides bind to functional epitopes within denatured collagen type-IV that regulate cellular adhesion. Non-tissue culture treated 48-well plates were coated with denatured collagen type-IV. Human melanoma cells M21 (Scripps Research Institute, La Jolla, Calif.) were allowed to attach to the coated wells in the presence or absence of the synthetic peptides CLK, SLK, and SDR, each peptide was at a concentration of 250 μg/ml. SDR peptide is a commercially available peptide that was used as a control (QED Bioscience, Inc., San Diego, Calif.).
Human denatured collagen type-IV (25 μg/ml) was immobilized on 48-well nontissue culture treated plates. Wells were washed and incubated with 1% BSA (bovine serum albumin) in PBS (phosphate-buffered saline) for one hour at 37° C. Subconfluent […] were harvested, washed, and resuspended in adhesion buffer containing RPMI-1640 medium, 1 mM MgCl2, 0.2 mM MnCl2, and 0.5% BSA. […] Cell adhesion was quantified by measuring the optical density of eluted crystal violet at a wavelength of 600 nm.

[1] = system: bFGF-induced angiogenesis in chick chorioallantoic membrane (CAM); assay: bFGF-induced angiogenesis in the chick CAM model; assay type: in vivo
Excerpt: FIG. 3A, FIG. 3B, and FIG. 3C depict a chick chorioallantoic membrane (CAM) without bFGF-induced angiogenesis, a CAM following bFGF-induced angiogenesis, and a CAM treated with CLK-peptide after bFGF-induced angiogenesis, respectively.
FIG. 4 is a chart which illustrates quantification of CAM angiogenic blood vessels following bFGF-induced angiogenesis without subsequent CLK-peptide treatment and CAM angiogenic blood vessels following bFGF-induced angiogenesis with subsequent CLK-peptide treatment.
Angiogenesis was induced within the chorioallantoic membrane (CAM) of 10-day old chick embryos with bFGF. Twenty-four hours later, 8-10 of the embryos were treated with a single intravenous injection of CLK-peptide (100 ug/embryo). At the end of a 3-day incubation period, the CAM tissues were removed for analysis. […] (FIGS. 3 (a),(b),(c)) The single injection of CLK-peptide inhibited bFGF by greater than 95%. […] Eight to ten chick embryos were tested in each of the two groups, and the experiment was repeated three times for a total of 24-30 chick embryos tested.

[2] = system: Human endothelial cells (HUVECs); assay: Endothelial cord formation in MATRIGEL; assay type: cell-based; details: 0 to 100 μg/ml, 24 hours
Experimental: FIG. 6 Effects of CLK Peptide on HUVEC Cord Formation in MATRIGEL®. MATRIGEL was added to 96-well plates and allowed to form three-dimensional gels. […] Representative photos were taken at a magnification of 100×. A. Untreated control. B. CLK 25 μg/ml. C. CLK 50 μg/ml. D. CLK 100 μg/ml. E. Control Peptide 100 μg/ml.
The role that the CLK cryptic collagen epitope plays in regulating endothelial cell morphogenesis and cord formation, processes important in angiogenesis, were investigated. MATRIGEL was diluted in M199 medium and 300 μl were added to the wells of a 48-well culture plate and allowed to polymerize. […] Endothelial morphogenesis and cord formation was monitored with an inverted microscope fitted with a 35 mm camera to document cord formation.

[3] = system: Human melanoma cells (M21); assay: M21 cell adhesion to denatured or native collagen type-IV or fibronectin (Example 9); assay type: cell-based
Experimental: Non-tissue culture treated 48-well plates were coated with denatured collagen type-IV at 10 μg/ml. […] Cell adhesion was quantified by measuring the O.D. of eluted dye at 600 nm. Data bars represent the mean O.D.±standard deviation from triplicate wells. Assays were completed 2 to 3 times with similar results.
Non-tissue culture treated 48-well plates were coated with native collagen type-IV or fibronectin at 10 μg/ml. Human melanoma cells (M21) were allowed to attach to the coated wells in the presence or absence of CLK-Peptide or control peptide CTW at 0-100 μg/ml. Cell adhesion was quantified by measuring the O.D. of eluted dye at 600 nm. Data bars represent the mean O.D.±standard deviation from triplicate wells. Assays were completed 2 to 3 times with similar results. A. Adhesion to native collagen type-IV. B. Adhesion to Fibronectin.
Adhesion assays were performed to study the effects of CLK-peptide on tumor cell adhesion in vitro. Microtiter wells were coated with either native collagen type-IV or the control ECM protein fibronectin. Malignant melanoma cells (M21) were allowed to bind to the coated substrates in the presence or absence of CLK peptide or a control peptide, CTW.

GL261 glioblastoma cells = assay: GL261 proliferation, CLK-peptide combined with ionizing radiation; assay type: cell-based, murine; details: CLK-peptide 50 μg/ml + 5.0 Gy, 3 days, P<0.050, versus control
Experimental: FIG. 24 CLK-Peptide Enhances Radiosensitivity of […] Glioblastoma. Percent inhibition of tumor cell proliferation was quantitated in the presence or absence of CLK-Peptide, ionizing radiation, and a combination of the two.
Microtiter wells were coated with denatured collagen type-IV (10 μg/ml). GL261 cells were resuspended in proliferation buffer containing 1% serum in the presence or absence of a sub-optimal amount of CLK-peptide or control peptide (CTW) (50 μg/ml).
The cells were added to the coated wells and allowed to incubate for 1 hour, then either untreated or irradiated with a single fraction dose of ionizing radiation (5.0 Gy). A ^60Co source (Theratron) was used to deliver a single fraction of 5 Gy. The cells, on a 30 cm^2 field, were irradiated from a distance of 80 cm with a gantry angle of 180 degrees on a solid water phantom at 0.5 cm depth.
Tumor cells were allowed to proliferate for 3 days and proliferation was quantified by measuring the relative amount of mitochondrial dehydrogenase using a WST-1 tetrazolium salt cleavage assays kit (Chemicon).

Substance: H-CLKQNGGNFSLG-OH [CLK-peptide, NH2-C-L-K-Q-N-G-G-N-F-S-L-G-COOH]
- blockade of melanoma cell adhesion (Human melanoma cells M21): exceeded 95%
- adverse effects following injection ([1]; chick embryos, 100 ug/embryo intravenous): No adverse effects
- number of branching vessels within the area of the filter disc ([1]; single intravenous injection 100 ug/embryo): dramatic reduction
- inhibition of bFGF (induced angiogenesis) ([1]; single intravenous injection 100 ug/embryo, 3-day incubation): greater than 95%
- effect on endothelial cord formation [2]: dose-dependently inhibited
- effect on M21 cell adhesion to fibronectin ([3]; 0-100 μg/ml): Neither CLK-Peptide nor the control peptide had any effect
- effect on M21 cell adhesion to native triple helical collagen type-IV ([3]; 0-100 μg/ml): Neither CLK-Peptide nor the control peptide had any effect
- maximal inhibition of M21 cell attachment to denatured collagen type-IV ([3]; at 100 μg/ml): approximately 65%
- increase of the antiproliferative effects of a sub-optimal dose of ionizing radiation (GL261 glioblastoma cells): approximately 5 fold
